Like-named read-outs stand apart in the source and are kept apart here.
Experiments:
[1] = target: T1, human AR (androgen receptor) (Homo sapiens, UniProt P10275); assay: Steroid hormone nuclear receptor binding assay, AR binding
T1 construct: expressed in transfected cells; host or cells: 293 cells (293-AR lysate)
T1 sequence (P10275 1-920): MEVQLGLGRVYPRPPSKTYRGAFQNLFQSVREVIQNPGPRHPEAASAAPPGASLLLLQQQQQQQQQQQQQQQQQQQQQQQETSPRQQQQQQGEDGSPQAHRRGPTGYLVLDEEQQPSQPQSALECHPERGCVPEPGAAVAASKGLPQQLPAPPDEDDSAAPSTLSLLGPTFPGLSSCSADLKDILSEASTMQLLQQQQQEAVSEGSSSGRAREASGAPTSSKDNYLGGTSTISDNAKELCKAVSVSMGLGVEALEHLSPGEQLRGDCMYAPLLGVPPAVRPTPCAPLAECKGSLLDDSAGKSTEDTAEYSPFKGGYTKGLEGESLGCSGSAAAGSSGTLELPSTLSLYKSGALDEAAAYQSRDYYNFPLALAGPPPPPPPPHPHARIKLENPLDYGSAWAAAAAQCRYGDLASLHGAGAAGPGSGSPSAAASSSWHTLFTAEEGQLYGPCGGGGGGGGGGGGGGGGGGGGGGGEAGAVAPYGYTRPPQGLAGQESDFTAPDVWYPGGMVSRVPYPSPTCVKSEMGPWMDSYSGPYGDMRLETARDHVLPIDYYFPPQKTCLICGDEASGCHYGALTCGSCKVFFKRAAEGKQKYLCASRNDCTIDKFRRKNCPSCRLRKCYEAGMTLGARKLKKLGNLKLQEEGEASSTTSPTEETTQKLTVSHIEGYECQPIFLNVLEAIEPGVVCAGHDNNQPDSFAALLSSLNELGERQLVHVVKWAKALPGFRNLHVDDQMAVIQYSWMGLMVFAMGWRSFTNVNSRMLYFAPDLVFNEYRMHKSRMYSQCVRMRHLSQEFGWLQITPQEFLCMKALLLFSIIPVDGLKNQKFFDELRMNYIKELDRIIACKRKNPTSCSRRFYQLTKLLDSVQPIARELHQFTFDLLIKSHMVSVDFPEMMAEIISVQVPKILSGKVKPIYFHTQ
Experimental: Cell lysates from 293 cells overexpressing human GR (glucocorticoid receptor), AR (androgen receptor), MR (mineralocorticoid receptor) or PR (progesterone receptor) are used for competition binding assays to determine Ki values for test compounds. […] Competing compounds are added at various concentrations ranging from about 0.01 nM to 10 μM. Non-specific binding is determined in the presence of 500 nM dexamethasone for GR binding, 500 nM aldosterone for MR binding, or 500 nM methyltrienolone for AR and PR binding. The binding reaction (140 μl) is incubated for overnight at 4° C., then 70 μl of cold charcoal-dextran buffer (containing per 50 ml of assay buffer, 0.75 g of charcoal and 0.25 g of dextran) is added to each reaction. Plates are mixed 8 minutes on an orbital shaker at 4° C. Plates are then centrifuged at 3,000 rpm at 4° C. for 10 minutes. An aliquot of 120 μl of the mix is transferred to another 96-well plate and 175 μl of Wallac Optiphase “Hisafe 3” scintillation fluid is added to each well. Plates are sealed and shaken vigorously on an orbital shaker. After an incubation of 2 hrs, plates are read in a Wallac Microbeta counter. […] The Kd for ^3H-dexamethasone for GR binding, ^3H-methyltrienolone for AR binding, ^3H-aldosterone for MR binding, or ^3H-methyltrienolone for PR binding, is determined by saturation binding. The IC50 values for test compounds are converted to Ki using Cheng-Prusoff equation and the Kd determined by saturation binding assay. […]

[2] = target: T2, human androgen receptor (AR) (Homo sapiens, UniProt P10275); assay: C2C12 AR/ARE reporter assay; assay type: cell-based
T2 construct: expressed in transfected cells; host or cells: mouse myoblast C2C12 cells, transiently co-transfected
T2 sequence (P10275 1-920): T1 sequence (P10275 1-920)
Experimental: As an indicator of agonist activity in muscle tissue, the C2C12 AR/ARE reporter assay is performed. Briefly, mouse myoblast C2C12 cells are co-transfected using FuGENE™. […] Cells are transfected in T150 cm^2 flasks in DMEM media with 4% or 10% Fetal Bovine Serum […]. After a 5 hour incubation, transfected cells are trypsinized, plated in 96 well dishes in DMEM media containing 10% charcoal-stripped FBS, incubated for 2 h and then exposed to various concentrations of test compounds ranging from about 0.01 nM to 10 μM. After 48 h of incubations with compounds, cells are lysed and luciferase activity is determined using standard techniques. Data is fit to a 4 parameter-fit logistics to determine EC50 values. The % efficacy is determined versus maximum stimulation obtained with 10 nM methyltrienolone. […]

[3] = C2C12, read-out: C2C12 % Efficacy
[4] = average of n trials, read-out: AR binding Ki
[5] = C2C12 AR/ARE reporter assay, average of n trials, read-out: C2C12 EC50
[6] = C2C12 AR/ARE reporter assay, average of n trials, read-out: C2C12 % Efficacy

COc1ccc2c(c1)c1c(n2Cc2ccccc2Cl)CCC(NC(=O)C(C)C)C1 (centres unmarked) [Example 69, N-[9-(2-Chloro-benzyl)-6-methoxy-2,3,4,9-tetrahydro-1H-carbazol-3-yl]-isobutyramide]
Ki [1]: 34.1 nM | EC50 [2]: 213 nM | Emax [2, 3]: 63.3%

COc1ccc2c(c1)c1c(n2Cc2cccc(Cl)c2)CCC(NC(=O)C(C)C)C1 (centres unmarked) [Example 70]
Ki [1]: 10 nM | EC50 [2]: 39.8 nM | Emax [2, 3]: 63.9%

COc1ccc2c(c1)c1c(n2Cc2ccc(Cl)cc2)CCC(NC(=O)C(C)C)C1 (centres unmarked) [Example 71]
Ki [1]: 82.5 nM | EC50 [2]: 402 nM | Emax [2, 3]: 40.7%

COc1cccc(Cn2c3c(c4cc(OC)ccc42)CC(NC(=O)C(C)C)CC3)c1 (centres unmarked) [Example 73]
Ki [1]: 52.1 nM | EC50 [2]: 227 nM | Emax [2, 3]: 54.7%

COc1cccc2c3c(n(Cc4ccccc4)c12)CCC(NC(=O)C(C)C)C3 (centres unmarked) [Example 76]
Ki [1]: 478 nM | EC50 [2]: 1710 nM | Emax [2, 3]: 58.1%

COc1ccc2c3c(n(Cc4ccccc4)c2c1)CCC(NC(=O)C(C)C)C3 (centres unmarked) [Example 77]
Ki [1]: 103 nM | EC50 [2]: 1200 nM | Emax [2, 3]: 74.9%

COc1ccc2c(c1)c1c(n2Cc2ccccc2F)CCC(NC(=O)C(C)C)C1 (centres unmarked) [Example 78]
Ki [1]: 187 nM | EC50 [2]: 238 nM | Emax [2, 3]: 71.5%

COc1ccc2c(c1)c1c(n2Cc2cccc(F)c2)CCC(NC(=O)C(C)C)C1 (centres unmarked) [Example 79, N-[9-(3-fluoro-benzyl)-methoxy-2,3,4,9-tetrahydro-1H-carbazol-3-yl]-isobutyramide]
Ki [1, 4]: 28.2 nM | C2C12 % Efficacy ([2]; C2C12 AR/ARE reporter assay, average of n trials): 85.7% | EC50 [2, 5]: 16.4 nM

CC(C)C(=O)NC1CCc2c(c3cc(Cl)ccc3n2Cc2cccc(Br)c2)C1 (centres unmarked) [Example 81]
Ki [1]: 11.3 nM | EC50 [2]: 94 nM | Emax [2, 3]: 81.9%

Cc1cccc(Cn2c3c(c4cc(Cl)ccc42)CC(NC(=O)C(C)C)CC3)c1 (centres unmarked) [Example 82]
Ki [1]: 6.1 nM | EC50 [2]: 37.1 nM | Emax [2, 3]: 87.3%

CC(C)C(=O)NC1CCc2c(c3cc(Cl)ccc3n2Cc2cccc(C(F)(F)F)c2)C1 (centres unmarked) [Example 83]
Ki [1]: 29.5 nM | EC50 [2]: 85.1 nM | Emax [2, 3]: 93.1%

CC(C)C(=O)NC1CCc2c(c3cc(C#N)ccc3n2Cc2ccccc2)C1 (centres unmarked) [Example 85]
Ki [1]: 4.6 nM | EC50 [2]: 3.8 nM | Emax [2, 3]: 79.8%

CC(C)C(=O)NC1CCc2c(c3cc(C#N)ccc3n2Cc2cccc(Br)c2)C1 (centres unmarked) [Example 86]
Ki [1]: 2.6 nM | EC50 [2]: 36.3 nM | Emax [2, 3]: 93.9%

COc1ccc(Cn2c3c(c4cc(C#N)ccc42)CC(NC(=O)C(C)C)CC3)cc1 (centres unmarked) [Example 87]
Ki [1]: 17.7 nM | Emax [2, 3]: 10.6%

CC(C)C(=O)NC1CCc2c(c3cc(C#N)ccc3n2Cc2cc(F)cc(F)c2)C1 (centres unmarked) [Example 89]
Ki [1]: 3.3 nM | EC50 [2]: 1.9 nM | Emax [2, 3]: 78.5%

CC(C)C(=O)NC1CCc2c(c3cc(C#N)ccc3n2Cc2cccc(N)c2)C1 (centres unmarked) [Example 90, N-[9-(3-Amino-benzyl)-6-cyano-2,3,4,9-tetrahydro-1H-carbazol-3-yl]-isobutyramide]
Ki [1]: 30.5 nM | EC50 [2]: 123 nM | Emax [2, 3]: 67.6%

CC(C)C(=O)NC1CCc2c(c3cc(O)ccc3n2Cc2cccc(F)c2)C1 (centres unmarked) [Example 91, N-[9-(3-Fluoro-benzyl)-6-hydroxy-2,3,4,9-tetrahydro-1H-carbazol-3-yl]-isobutyramide]
Ki [1]: 11.8 nM | EC50 [2]: 97.1 nM | Emax [2, 3]: 86.9%

CC(C)C(=O)NC1CCc2c(c3cc(OCC4CC4)ccc3n2Cc2cccc(F)c2)C1 (centres unmarked) [Example 92, N-[6-Cyclopropylmetboxy-9-(3-fluoro-benzyl)-2,3,4,9-tetrahydro-1H-carbazol-3-yl]-isobutyramide]
Ki [1]: 4.1 nM | EC50 [2]: 3 nM | Emax [2, 3]: 73.4%

CCOc1ccc2c(c1)c1c(n2Cc2cccc(F)c2)CCC(NC(=O)C(C)C)C1 (centres unmarked) [Example 93, N-[6-Ethoxy-9-(3-fluoro-benzyl)-2,3,4,9-tetrahydro-1H-carbazol-3-yl]-isobutyramide]
Ki [1]: 6.8 nM | EC50 [2]: 5 nM | Emax [2, 3]: 82.4%

CC(C)Oc1ccc2c(c1)c1c(n2Cc2cccc(F)c2)CCC(NC(=O)C(C)C)C1 (centres unmarked) [Example 94, N-[9-(3-Fluoro-benzyl)-6-isopropoxy-2,3,4,9-tetrahydro-1H-carbazol-3-yl]-isobutyramide]
Ki [1]: 38.3 nM | EC50 [2]: 41 nM | Emax [2, 3]: 101%

CCCOc1ccc2c(c1)c1c(n2Cc2cccc(F)c2)CCC(NC(=O)C(C)C)C1 (centres unmarked) [Example 95, N-[9-(3-Fluoro-benzyl)-6-propoxy-2,3,4,9-tetrahydro-1H-carbazol-3-yl]-isobutyramide]
Ki [1]: 12.4 nM | EC50 [2]: 18.3 nM | Emax [2, 3]: 79.6%

CC(C)C(=O)NC1CCc2c(c3cc(Cl)ccc3n2Cc2ccccc2O)C1 (centres unmarked) [Example 101, N-[6-Chloro-9-(2-hydroxy-benzyl)-2,3,4,9-tetrahydro-1H-carbazol-3-yl]-isobutyramide]
Ki [1]: 5.2 nM | EC50 [2]: 4.1 nM | Emax [2, 3]: 65.3%

CC(C)C(=O)NC1CCc2c(c3cc(Cl)ccc3n2Cc2cccc(O)c2)C1 (centres unmarked) [Example 102, N-[^6-Chloro-9-(3-hydroxy-benzyl)-2,3,4,9-tetrahydro-1H-carbazol-3-yl]-isobutyramide]
Ki [1]: 16.8 nM | EC50 [2]: 300 nM | Emax [2, 3]: 39.6%

CC(C)C(=O)NC1CCc2c(c3cc(Cl)ccc3n2Cc2ccc(O)cc2)C1 (centres unmarked) [Example 103, N-[6-Chloro-9-(4-hydioxy-benzyl)-2,3,4,9-tetrahydro-1H-carbazol-3-yl]-isobutyramide]
Ki [1, 4]: 51.4 nM | Emax [2, 6]: 32.8% | EC50 [2, 5]: 293 nM

CC(C)C(=O)NC1CCc2c(c3cc(Cl)ccc3n2Cc2ccccc2[N+](=O)[O-])C1 (centres unmarked) [Example 104, N-[6-Chloro-9-(2-nitro-benzyl)-2,3,4,9-tetrahydro-1H-carbazol-3-yl]-isobutyramide]
Ki [1, 4]: 22.5 nM | Emax [2, 6]: 71.6% | EC50 [2, 5]: 555 nM

From patent US7935722B2 (Eli Lilly and Company, priority 2005, dated 2011)
